Test results taken from patent US20210275480A1, “COMPOSITIONS AND METHODS FOR THE REDUCTION OR TREATMENT OF FIBROSIS” (AXCELLA HEALTH INC., priority 2018, published 2021).
“And” between values parts separate entries of the source, which are not always exact repeats. Identical values can stand only once.

Key:
[1] = tested on: LX-2 hepatic stellate cells; assay: TGFβ1-induced fibrogenic gene expression (Col1a1, Acta2, Timp2) in LX-2 hepatic stellate cells, qPCR; assay type: cell-based, human; conditions: LX-2 cells with TGFβ1
From the text: Hepatic stellate cells in a healthy liver are in the space of Disse, between the hepatocytes and liver sinusoidal endothelial cells. In response to liver injury hepatic stellate cells become activated, proliferative and contractile, increase production of aSMA, secretion of type I and III collagens and specific MMP and TIMP proteins. LX-2 cells were selected as a model of activated hepatic stellate cells and used to test whether specific amino acid compositions would reduce fibrogenic gene expression induced with TGFβ1.
LX-2 hepatic stellate cells (Millipore) were seeded on day 0 at 1.67E4 cells per well in collagen I coated 96-well microplates (ThermoFisher) in Dulbecco's Modified Eagle Medium (DMEM, Corning) supplemented with 2% heat inactivated fetal bovine serum (HI-FBS, HyClone) and 0.2% Primocin (InVivoGen) and incubated overnight at 37° C., 5% CO2. […] Combinations containing N-acetylcysteine were dosed with 10 mM. Cells were pretreated for 6 hours at 37° C., 5% CO2. After pretreatment, TGFβ1 (R&D Systems) or vehicle was spiked into each well for a final concentration of 5 ng/mL and cells were incubated under this stimulus for a further 12 hours at 37° C., 5% CO2.
After 12 hour incubation, RNA extraction and quantitative PCR was conducted on lysates to determine collagen-1a1 expression normalized to β-actin housekeeping expression using the ΔΔCt method using TaqMan primer probes (Integrated DNA Technologies: Col1A1, Hs.PT.58.15517795; Actb, Hs.PT.39a.22214847; Acta2, Hs.PT.56a.24853961; Timp2, Hs.PT.58.14780594).

STAM mice (NASH) = assay: STAM model of NASH (Example 2): NAFLD activity score, Sirius red, α-SMA staining; assay type: in vivo, mouse; design: key to NAFLD Activity: Ballooning Score, mean / NAFLD Activity: Steatosis Score, mean / NAFLD Activity: Inflammation Score, mean / NAFLD Activity Score: raw data / NAFLD Activity: Steatosis Score: raw data / NAFLD Activity: Ballooning Score: raw data: NAS = steatosis (0-3) + inflammation (0-2) + ballooning (0-2)
Procedure: Amino Acid Composition A-1 and Obeticholic acid (6α-ethyl-chenodeoxycholic acid; “OCA”) were tested for their ability to treat NASH in the STAM™ model (Stelic Institute & Co., Tokyo, Japan; Saito K. et al., 2015 Sci Rep 5: 12466). Two additional groups of normal C57BL/6 mice fed standard chow and vehicle treated STAM™ mice were included as controls. All animals receiving treatment or vehicle were treated starting at 6 weeks until 9 weeks of age. Compounds were administered via oral gavage, with a dose volume of 10 ml/kg. Amino Acid Composition A-1 was administered twice daily at a dose of 1500 mg/kg, and OCA was administered once daily at a dose of 30 mg/kg.
STAM™ is a model for non-alcoholic steatohepatitis (NASH) and hepatocellular carcinoma (HCC), developed by SMC Laboratories, Inc. and created by the combination of chemical and dietary interventions using C57BL/6 mice (Saito K. et al., 2015 Sci Rep 5: 12466). Mice are treated with a low dose of streptozotocin at birth and fed a high fat diet starting at 4 weeks. Evidence of fatty liver is present by 5 weeks, followed by NASH by 7 weeks and fibrosis by 9 weeks.
NASH was induced in 53 male mice by a single subcutaneous injection of 200 μg streptozotocin (STZ, Sigma-Aldrich, USA) solution 2 days after birth and feeding with high fat diet (HFD, 57 kcal % fat, Cat #HFD32, CLEA Japan, Japan) after 4 weeks of age.
Amino Acid Composition A-1, OCA and Vehicle (described below) were administered by oral route in a volume of 10 mL/kg. Amino Acid Composition A-1 was solubilized in deionized water to 150 mg/ml (10×). OCA (Advanced ChemBlocks Inc.) was resuspended in 0.5% methylcellulose in water to 3 mg/ml (10×). Amino Acid Composition A-1 was administered at a dose of 1500 mg/kg twice daily (9 am and 7 pm). OCA was administered at a dose of 30 mg/kg once daily (9 am).
Liver samples from mice in Group 2 (Vehicle), 3 (Amino Acid Composition A-1) and 4 (OCA) were used for the following assays. For HE staining, sections were cut from paraffin blocks of liver tissue prefixed in Bouin's solution and stained with Lillie-Mayer's Hematoxylin (Muto Pure Chemicals Co., Ltd., Japan) and eosin solution (Wako Pure Chemical Industries). NAFLD Activity score (NAS) was calculated according to the criteria of Kleiner (Kleiner D. E. et al., Hepatology, 2005; 41:1313).
Group 3: Amino Acid Composition A-1: Ten NASH mice were orally administered water for irrigation supplemented with Amino Acid Composition A-1 at a dose of 1500 mg/kg twice daily (9 am and 7 pm) from 6 to 9 weeks of age.
Group 4: OCA: Ten NASH mice were orally administered 0.5% methylcellulose supplemented with OCA at a dose of 30 mg/kg once daily (9 am) from 6 to 9 weeks of age.
The non-alcoholic fatty liver disease (NAFLD) activity score was assessed via histological analysis and grading of H&E stained liver sections from each animal. This score is the sum of three individual scores that grade the degree of steatosis (0-3), inflammation (0-2), and hepatocyte ballooning (0-2). All tissues were graded using the scoring criteria of Kleiner et al. (Kleiner et al. Hepatology. 2005; 41(6): 1313-21). Data are mean±standard deviation (stdev). […] Both Amino Acid Composition A-1 and OCA were statistically different from vehicle for NAFLD Activity Score when compared using Dunnett's multiple comparisons test (Amino Acid Composition A-1 p=0.0001, OCA p=0.0001).
Fibrosis was assessed by analysis of Sirius red positively stained cell area from stained liver sections from each animal. Images were quantified using the percent of positively stained area was used as a measure of fibrosis. Data are mean±standard deviation (stdev). […] Amino Acid Composition A-1 and OCA were statistically different from vehicle when compared using Dunnett's multiple comparisons test (Amino Acid Composition A-1 p=0.00494, OCA p<0.016).
Liver sections of all mice were stained for the marker α-smooth muscle actin (aSMA) to identify activated hepatic stellate cells. […]

[2] = individual amino acid at 1X HMDB derived concentration
[3] = individual amino acid at 50X HMDB derived concentration
[4] = STAM mice liver sections, A-1 1500 mg/kg twice daily, OCA 30 mg/kg once daily
[5] = STAM mice treated 6 to 9 weeks of age, A-1 1500 mg/kg twice daily, OCA 30 mg/kg once daily

With `CC[C@H](C)[C@H](N)C(=O)O` [ILE, isoleucine] as the molecule, how does the “Col1a1 gene expression, mean” value [1, 2] read?
Its value is 2.020.

What about the “Col1a1 gene expression, mean” value [1, 3] of the same molecule?
Its value is 2.028.

Which “Activated hepatic stellate cells (mean positively stained area, α-smooth muscle actin)” value (STAM mice (NASH); [4]) does the source give for `CC[C@H]1[C@@H](O)[C@@H]2[C@H](CC[C@]3(C)[C@@H]([C@H](C)CCC(=O)O)CC[C@@H]23)[C@@]2(C)CC[C@@H](O)C[C@@H]12` [OCA, 6α-ethyl-chenodeoxycholic acid] here?
The value was 1.562+/−0.31% and 1.562%.

And the “Fibrosis (mean positively stained area, Sirius red)” value (STAM mice (NASH); [4])?
Its value is 0.776+/−0.25% and 0.776%.

And the “NAFLD Activity: Ballooning Score, mean” value (STAM mice (NASH); [5])?
Its value is 0.3+/−0.48 and 0.3.

What about the “NAFLD Activity: Inflammation Score, mean” value (STAM mice (NASH); [5]) of the same molecule?
Its value is 1.8.

What about the “NAFLD Activity: Steatosis Score, mean” value (STAM mice (NASH); [5]) of the same molecule?
Its value is 0.8.

What about the “NAFLD Activity Score (NAS), mean” value (STAM mice (NASH); STAM mice treated 6 to 9 weeks of age, A-1 1500 mg/kg twice daily, OCA 30 mg/kg once daily, oral) of the same molecule?
The value was 2.9+/−0.74 and 2.9.

And the “Activated hepatic stellate cells (positively stained area, α-smooth muscle actin): raw data” value (STAM mice (NASH); individual STAM mice)?
Its value is 1.51% and 1.49% (2×) and 1.17% and 1.5% and 1.13% and 2.03% and 1.87% and 1.97% and 1.46%.

And the “Fibrosis (positively stained area, Sirius red): raw data” value (STAM mice (NASH); individual STAM mice)?
Its value is 1.1% and 1.19% and 0.89% and 0.91% and 0.66% and 0.72% and 0.68% and 0.69% and 0.36% and 0.56%.

And the “NAFLD Activity Score: raw data” value (STAM mice (NASH); individual STAM mice)?
Its value is 2 (3×) and 4 (2×) and 3 (5×).

What about the “NAFLD Activity: Ballooning Score: raw data” value (STAM mice (NASH); individual STAM mice) of the same molecule?
The value was 0 (7×) and 1 (3×).

What about the “NAFLD Activity: Inflammation Score: raw data” value (STAM mice (NASH); individual STAM mice) of the same molecule?
Its value is 1 (4×) and 2 (4×) and 3 (2×).

What about the “NAFLD Activity: Steatosis Score: raw data” value (STAM mice (NASH); individual STAM mice) of the same molecule?
Its value is 1 (8×) and 0 (2×).

Which results are given for `CC(C)[C@H](N)C(=O)O` [VAL, valine]?
Col1a1 gene expression, mean [1, 2]: 2.093; Col1a1 gene expression, mean [1, 3]: 2.203
